Data on seven molecules can be found in patent EP1956016A1, “Bicyclic acyltryptophanols” (Bayer Schering Pharma Aktiengesellschaft, priority 2006, dated 2008).

This assay concerns the target T1, human FSH receptor (Homo sapiens, UniProt P23945).
T1 construct: expressed in transfected cells; host or cells: CHO cells (hFSHR clone 16)
T1 sequence (P23945 18-695): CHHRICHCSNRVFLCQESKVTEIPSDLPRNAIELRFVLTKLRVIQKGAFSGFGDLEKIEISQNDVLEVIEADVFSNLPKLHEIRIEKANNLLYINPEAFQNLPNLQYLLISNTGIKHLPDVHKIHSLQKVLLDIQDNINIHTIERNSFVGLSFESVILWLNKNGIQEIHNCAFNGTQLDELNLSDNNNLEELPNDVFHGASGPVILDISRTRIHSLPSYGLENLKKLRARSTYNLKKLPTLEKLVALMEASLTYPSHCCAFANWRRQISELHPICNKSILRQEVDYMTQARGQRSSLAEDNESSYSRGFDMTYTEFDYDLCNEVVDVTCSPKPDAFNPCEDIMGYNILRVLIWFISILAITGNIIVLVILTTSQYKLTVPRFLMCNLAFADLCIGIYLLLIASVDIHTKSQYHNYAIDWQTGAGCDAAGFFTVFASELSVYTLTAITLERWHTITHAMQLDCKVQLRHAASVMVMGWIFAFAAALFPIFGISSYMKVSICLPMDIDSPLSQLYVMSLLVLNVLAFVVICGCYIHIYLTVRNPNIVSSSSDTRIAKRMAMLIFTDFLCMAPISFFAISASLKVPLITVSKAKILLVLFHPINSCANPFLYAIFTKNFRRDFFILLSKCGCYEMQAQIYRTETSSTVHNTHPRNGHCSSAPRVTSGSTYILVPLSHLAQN
Briefly: HTRF assay for measuring cAMP in cells (FSH antagonism). The following applies: hFSHR clone 16 cells (CHO cells stably transfected with the human FSH receptor); in the presence of 1 e-9 mol/l hFSH; 37°C for 2h. The assay is classed as cell-based. The protocol:
HTRF assay for measuring cAMP in cells
The method is based on a competitive immunoassay between native cAMP, which has been produced by the cells, and cAMP which is labelled with XL665. The tracer binding was visualized by a monoclonal antibody, anti-cAMP labelled with cryptate [HTRF = homogeneous time-resolved fluorescence].
The specific signal is inversely proportional to the cAMP concentration of the samples employed.
The 665nm/ 620nm fluorescence ratio was evaluated.
The following material was used: 96-well plates for the tissue culture, 96-well plates with black edge and black base (e.g. Fluotrac 600 from Greiner), 96-well plates for the substance dilutions of polypropylene and CAMP Femtomolar (4000wells Kit, CIS Bio International # 62AM1PEC).
The following reagents were used: BSA (bovine serum albumin) Fraction V protease-free, IBMX (3-isobutyl-1-methylxanthine), hFSH (human follicle stimulating hormone), Triton X-100 analytical grade, potassium fluoride analytical grade, G 418 (Geneticin) and Accutase.
Buffer 1 (washing and testing buffer) contained PBS, 1 mM CaCl2, 1 mM MgCl2, 0.2% glucose; 0.1% BSA, 1 mM IBMX.
Buffer 2 (2x lysis buffer) contained 1 % Triton X-100 in PBS (without CaCl2 and MgCl2).
Buffer 3 (assay buffer) contained 50 mM potassium phosphate buffer (pH 7.0); 800 mM potassium fluoride; 0.2% BSA (always added fresh).
On day 1, the cells were seeded in 96-well plates (3x10^4 cells per well hFSHR clone 16 cells (CHO cells stably transfected with the human FSH receptor in 150 µl of medium). The next day, test substance dilutions were made up. For this purpose, all the substances were diluted in ice-cold buffer 1 (with or without hFSH), and the substance dilutions were placed on ice until applied to the cells.
The cell supernatant was then aspirated off, and the cells were washed 2x with 200 µl of buffer 1. The cells were treated with 60 µl of the appropriate substance concentrations at 37°C for 2h. The cells were then lysed with 60 µl of buffer 2 (put onto the supernatant) (on a plate shaker at RT for 30 min).
The test conjugates (XL-665 and anti-cAMP cryptate) were diluted in buffer 3 in accordance with the manufacturers' information. The actual mixture for measurement was pipetted into a black 96-well plate (in each case 15 µl of the cell lysate diluted with 35 µl of buffer 1; firstly 25 µl of XL-665 conjugate were pipetted and, after 10 min, 25 µl of the anti-cAMP cryptate were added). This is followed by incubation at RT for 90 minutes. The measurement was carried out in a PheraStar (BMG).
Tissue culture conditions
1) hFSHr clone 16 Ham's F12 PSG 10% FCS 700 µg/ml G 418 (Geneticin) from PAA.
Dose-effect curve (hFSH) for the human receptor: 1 e-8, 3e-9, 1 e-9, 3e-10, 1e-10, 3e-11, 1e-11, 3e-12 mol/l.
The test substances were employed in suitable dilutions in the absence (test for agonism) and in the presence of 1 e-9 mol/l hFSH.
The values of the well ratio were averaged and then entered directly in SigmaPlot versus the concentrations. The maximum and minimum values were determined for each plate, and half the difference is to be regarded as IC50.
(In general: Time-resolved FRET reads energy transfer from a long-lived donor to a nearby acceptor.)

As usually defined, the IC50 is the concentration that gives 50% inhibition. Regarding `Cc1ccccc1C#Cc1cc2c(c(C(=O)N[C@@H](CO)Cc3c[nH]c4ccccc34)c1)OCC=C2` [Example 4, 6-o-Tolylethynyl-2H-chromene-8-carboxylic acid [(R)-1-hydroxymethyl-2-(1H-indol-3-yl)-ethyl]-amide], the IC50 came to 0.45 µM.

In the case of `CNC(=O)c1cc(F)cc(-c2cc3c(c(C(=O)N[C@@H](CO)Cc4c[nH]c5ccccc45)c2)OC(C)(C)C=C3)c1` [Example 8, 6-(3-Fluoro-5-methylcarbamoyl-phenyl)-2,2-dimethyl-2H-chromene-8-carboxylic acid [(R)-2-hydroxy-1-(1 H-indol-3-yl-methyl)-ethyl]-amide], the half-inhibitory concentration (IC50) came to 0.014 µM.

Regarding `CCC1Cc2cc(-c3ccc(OC)c(OC)c3)cc(C(=O)N[C@@H](CO)Cc3c[nH]c4ccccc34)c2O1` (stereo partly drawn) [Example 13, 5-(3,4-Dimethoxy-phenyl)-2-ethyl-2,3-dihydro-benzofuran-7-carboxylic acid [(R)-1-hydroxymethyl-2-(1H-indol-3-yl)-ethyl]-amide], the IC50 was 0.15 µM.

For `CNC(=O)c1ccc(-c2cc3c(c(C(=O)N[C@@H](CO)Cc4c[nH]c5ccccc45)c2)OCCO3)cc1Cl` [Example 14, 7-(3-Chloro-4-methylcarbamoyl-phenyl)-2,3-dihydro-benzo[1,4]dioxine-5-carboxylic acid [(R)-2-hydroxy-1-(1 H-indol-3-ylmethyl)-ethyl]-amide], the IC50 came out at 0.45 µM.

Regarding `CNC(=O)c1ccc(-c2cc3c(c(C(=O)N[C@@H](CO)Cc4c[nH]c5ccccc45)c2)OCC=C3)cc1Cl` [Example 2, 6-(3-Chloro-4-methylcarbamoyl-phenyl)-2H-chromene-8-carboxylic acid [(R)-2-hydroxy-1-(1H-indol-3-ylmethyl)-ethyl]-amide], the IC50 came out at 0.13 µM.

As to `C=CC1Cc2cc(-c3ccc(OC)c(OC)c3)cc(C(=O)N[C@@H](CO)Cc3c[nH]c4ccccc34)c2O1` (mixture of isomers) [Example 12, 5-(3,4-Dimethoxy-phenyl)-2-vinyl-2,3-dihydro-benzofuran-7-carboxylic acid [(R)-1-hydroxymethyl-2-(1H-indol-3-yl)-ethyl]-amide], the IC50 turned out to be 0.35 µM.

In the case of `COc1cc(-c2cc3c(c(C(=O)N[C@@H](CO)Cc4c[nH]c5ccccc45)c2)OCC3)cc(F)c1F` [Example 20, 5-(3,4-Difluoro-5-methoxy-phenyl)-2,3-dihydro-benzofuran-7-carboxylic acid [(R)-2-hydroxy-1-(1H-indol-3-ylmethyl)-ethyl]-amide], the IC50 was 2 µM.
